Where “and” joins values, the source holds several entries; their conditions need not be identical. Equal values may be shown once. Toxic doses and inconclusive results are not listed. Rule for the calls: active = survival T/C of 150% or more; inactive = T/C below 125% in these data.
System: BDF1 mice, P388 leukemia ip, median survival T/C
Assay: NCI In Vivo Anticancer Drug Screen. Data for tumor model P388 Leukemia (intraperitoneal) in B6D2F1 (BDF1) mice
Conditions: endpoint: median survival time, higher = longer survival
How it was run: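 Reported as T/C, where T is the survival measurement in dosed animals and C the same measurement in vehicle controls.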

[1] = dose: 25.0 mg/kg/injection, schedule: Q01DX009 (ip), vehicle: saline with Tween-80
[2] = dose: 50.0 mg/kg/injection, schedule: Q01DX009 (ip), vehicle: saline with Tween-80
[3] = dose: 50.0 mg/kg/injection, schedule: Q04DX003 (ip), vehicle: saline with Tween-80
[4] = dose: 100.0 mg/kg/injection, schedule: Q01DX009 (ip), vehicle: saline with Tween-80
[5] = dose: 100.0 mg/kg/injection, schedule: Q04DX003 (ip), vehicle: saline with Tween-80
[6] = dose: 200.0 mg/kg/injection, schedule: Q01DX009 (ip), vehicle: saline with Tween-80
[7] = dose: 25.0 mg/kg/injection, schedule: Q01DX009 (ip), vehicle: saline
[8] = dose: 50.0 mg/kg/injection, schedule: Q01DX009 (ip), vehicle: saline
[9] = dose: 100.0 mg/kg/injection, schedule: Q01DX001 (ip), vehicle: saline with Tween-80
[10] = dose: 400.0 mg/kg/injection, schedule: Q01DX001 (ip), vehicle: saline with Tween-80
[11] = dose: 200.0 mg/kg/injection, schedule: Q04DX003 (ip), vehicle: saline with Tween-80
[12] = dose: 100.0 mg/kg/injection, schedule: Q01DX009 (ip), vehicle: saline
[13] = dose: 100.0 mg/kg/injection, schedule: Q04DX003 (ip), vehicle: saline
[14] = dose: 200.0 mg/kg/injection, schedule: Q01DX009 (ip), vehicle: saline
[15] = dose: 200.0 mg/kg/injection, schedule: Q04DX003 (ip), vehicle: saline
[16] = dose: 100.0 mg/kg/injection, schedule: Q01DX009 (ip), vehicle: Klucel (hydroxypropylcellulose) (HPC)

Measured: T/C

Cc1ccc(C(=O)O)cc1S(=O)(=O)Cl
inactive: dose: 4.0 mg/kg/injection, schedule: Q01DX009 (ip), vehicle: saline with Tween-80 117 % of control | dose: 8.0 mg/kg/injection, schedule: Q01DX009 (ip), vehicle: saline with Tween-80 110 % of control | dose: 16.0 mg/kg/injection, schedule: Q01DX009 (ip), vehicle: saline with Tween-80 90 % of control | [1] 104 % of control | dose: 32.0 mg/kg/injection, schedule: Q01DX009 (ip), vehicle: saline with Tween-80 117 % of control | [2] 95 % of control | [3] 106 % of control | [4] 98 % of control | [5] 100 % of control | [6] 95 % of control

NNC(=O)[C@H]1CC[C@H]1C(=O)NN
inactive: [7] 95 % of control | [8] 109 % of control

CC1(C)C(N2CCOCC2)C(c2ccccc2)S1(=O)=O (stereo not drawn)
inactive: [9] 100 % of control | [10] 95 % of control

COc1cc2c3cc1Oc1c(O)c(OC)cc4c1C(Cc1cc5c(c(c1)Oc1ccc(cc1)CC3N(C)CC2)OCO5)N(C)CC4 (stereo not drawn)
inactive: dose: 1.25 mg/kg/injection, schedule: Q01DX010 (ip), vehicle: saline 90 % of control | dose: 2.5 mg/kg/injection, schedule: Q01DX010 (ip), vehicle: saline 95 % of control | dose: 5.0 mg/kg/injection, schedule: Q01DX010 (ip), vehicle: saline 90 % of control | dose: 10.0 mg/kg/injection, schedule: Q01DX010 (ip), vehicle: saline 86 % of control

CCn1c(C)nc2cc(C(N)=O)ccc21
inactive: [3] 95 % of control | [5] 90 % of control | [11] 113 % of control

CCN(CC)CC(=O)Nc1ccc(Cl)cc1Cc1ccccc1
inactive: [2] 110 % of control | [4] 106 % of control | [6] 105 % of control

c1csc(C[N+]23CN4CN(CN(C4)C2)C3)c1
inactive: [12] 116 % of control

CCNC(C)(C)C(=O)c1ccc(Cl)s1
inactive: [1] 98 % of control | [2] 91 % of control | [3] 99 % of control | [4] 96 % of control | [5] 86 % of control and 109 % of control | [11] 89 % of control and 104 % of control | dose: 400.0 mg/kg/injection, schedule: Q04DX003 (ip), vehicle: saline with Tween-80 95 % of control and 96 % of control

O=C(CCl)NCc1cnccn1
inactive: [7] 107 % of control | [8] 102 % of control | [12] 108 % of control | [13] 94 % of control | [14] 102 % of control | [15] 117 % of control

Cc1cc(N)on1
inactive: [12] 100 % of control | [13] 109 % of control | [14] 96 % of control | [15] 109 % of control | dose: 400.0 mg/kg/injection, schedule: Q04DX003 (ip), vehicle: saline 109 % of control

CC(C)=CCC1=C(O)c2ccccc2C(=O)C1=O
inactive: dose: 25.0 mg/kg/injection, schedule: Q#A X018 (oral), vehicle: other 100 % of control | dose: 50.0 mg/kg/injection, schedule: Q01DX010 (ip), vehicle: other 104 % of control | dose: 50.0 mg/kg/injection, schedule: Q01DX010 (ip), vehicle: water 118 % of control | dose: 50.0 mg/kg/injection, schedule: Q#A X018 (oral), vehicle: other 100 % of control | dose: 50.0 mg/kg/injection, schedule: Q#A X020 (ip), vehicle: other 100 % of control | dose: 75.0 mg/kg/injection, schedule: Q01DX010 (ip), vehicle: water 100 % of control and 109 % of control | dose: 100.0 mg/kg/injection, schedule: Q01DX010 (ip), vehicle: other 118 % of control | dose: 100.0 mg/kg/injection, schedule: Q#A X018 (oral), vehicle: other 100 % of control | dose: 100.0 mg/kg/injection, schedule: Q#A X020 (ip), vehicle: other 90 % of control | dose: 125.0 mg/kg/injection, schedule: Q01DX010 (ip), vehicle: water 95 % of control | dose: 150.0 mg/kg/injection, schedule: Q01DX010 (ip), vehicle: water 90 % of control and 104 % of control | dose: 150.0 mg/kg/injection, schedule: Q#A X018 (ip), vehicle: other 100 % of control | dose: 150.0 mg/kg/injection, schedule: Q#A X020 (ip), vehicle: other 120 % of control

CS(=O)(=O)c1cnc2ccccc2n1
inactive: [1] 97 % of control | [2] 99 % of control | [4] 90 % of control

O=C(OC1CC2CCCC21)c1cc([N+](=O)[O-])cc([N+](=O)[O-])c1 (stereo not drawn)
inactive: [9] 94 % of control | dose: 200.0 mg/kg/injection, schedule: Q01DX001 (ip), vehicle: saline with Tween-80 97 % of control | [10] 99 % of control

CC(CN)OCc1ccccc1 (stereo not drawn)
inactive: dose: 12.5 mg/kg/injection, schedule: Q04DX003 (ip), vehicle: saline 100 % of control | dose: 50.0 mg/kg/injection, schedule: Q04DX003 (ip), vehicle: saline 100 % of control

C=C(C)[C@@H]1CC[C@]2(CO)CC[C@]3(C)[C@H](CC[C@@H]4[C@@]5(C)CC[C@H](O)C(C)(C)[C@@H]5CC[C@]43C)[C@@H]12
inactive: dose: 10.0 mg/kg/injection, schedule: Q01DX009 (ip), vehicle: saline with Tween-80 94 % of control | dose: 20.0 mg/kg/injection, schedule: Q01DX009 (ip), vehicle: saline with Tween-80 99 % of control | dose: 40.0 mg/kg/injection, schedule: Q01DX009 (ip), vehicle: saline with Tween-80 100 % of control | dose: 75.0 mg/kg/injection, schedule: Q01DX009 (ip), vehicle: other 97 % of control | dose: 80.0 mg/kg/injection, schedule: Q01DX009 (ip), vehicle: saline with Tween-80 95 % of control | [16] 101 % of control | dose: 150.0 mg/kg/injection, schedule: Q01DX009 (ip), vehicle: other 106 % of control | dose: 200.0 mg/kg/injection, schedule: Q01DX009 (ip), vehicle: Klucel (hydroxypropylcellulose) (HPC) 98 % of control | dose: 400.0 mg/kg/injection, schedule: Q01DX009 (ip), vehicle: Klucel (hydroxypropylcellulose) (HPC) 111 % of control

CC12CCC3C(CCC4=CC(=O)CCC43C)C1CCC(=O)O2 (stereo not drawn)
inactive: dose: 12.5 mg/kg/injection, schedule: Q01DX009 (ip), vehicle: Klucel (hydroxypropylcellulose) (HPC) 95 % of control | dose: 25.0 mg/kg/injection, schedule: Q01DX009 (ip), vehicle: Klucel (hydroxypropylcellulose) (HPC) 95 % of control | dose: 50.0 mg/kg/injection, schedule: Q01DX009 (ip), vehicle: Klucel (hydroxypropylcellulose) (HPC) 104 % of control | [16] 95 % of control | dose: 100.0 mg/kg/injection, schedule: Q04DX003 (ip), vehicle: Klucel (hydroxypropylcellulose) (HPC) 109 % of control | dose: 200.0 mg/kg/injection, schedule: Q04DX003 (ip), vehicle: Klucel (hydroxypropylcellulose) (HPC) 90 % of control | dose: 400.0 mg/kg/injection, schedule: Q04DX003 (ip), vehicle: Klucel (hydroxypropylcellulose) (HPC) 90 % of control

COC(=O)C(C)NC1=C(Cl)C(=O)C(NC(C)C(=O)OC)=C(Cl)C1=O (stereo not drawn)
inactive: dose: 50.0 mg/kg/injection, schedule: Q01DX009 (ip), vehicle: saline + Tween-80 + alcohol 98 % of control | dose: 100.0 mg/kg/injection, schedule: Q01DX009 (ip), vehicle: saline + Tween-80 + alcohol 97 % of control | dose: 200.0 mg/kg/injection, schedule: Q01DX009 (ip), vehicle: saline + Tween-80 + alcohol 101 % of control

— PubChem BioAssay AID328 (DTP/NCI, 2004)
